One assay has as its target T1, PTPN3-Bidomain (Homo sapiens, UniProt P26045).
T1 construct: 6xHis (N); made in house; host or cells: E. coli BL21 Star (DE3)
T1 sequence (P26045 488-913): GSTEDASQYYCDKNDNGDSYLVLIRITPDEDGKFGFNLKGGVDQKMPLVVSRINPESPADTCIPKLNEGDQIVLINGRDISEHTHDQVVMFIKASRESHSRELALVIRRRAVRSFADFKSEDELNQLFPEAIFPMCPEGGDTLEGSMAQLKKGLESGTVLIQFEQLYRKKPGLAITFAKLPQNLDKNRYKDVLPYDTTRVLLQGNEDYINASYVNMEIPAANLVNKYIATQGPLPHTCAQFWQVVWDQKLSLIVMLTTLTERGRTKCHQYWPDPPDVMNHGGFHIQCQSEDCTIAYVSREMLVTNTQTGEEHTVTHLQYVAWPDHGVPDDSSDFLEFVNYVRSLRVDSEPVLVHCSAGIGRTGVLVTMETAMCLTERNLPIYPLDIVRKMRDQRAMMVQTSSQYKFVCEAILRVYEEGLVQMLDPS
Briefly: pNPP hydrolysis by PTPN3-Bidomain pre-incubated with PBM peptide. The assay is classed as biochemical. Conditions: Bidomain 75 nM + large excess of peptide (molar ratio 600:1, 30 min at 25°C), pNPP 19 µM-10 mM, pH 7.5, 25°C, A410, three independent experiments; for Km: substrate-inhibition Michaelis-Menten fit. How it is done:
We performed enzymatic assays on the constructs PTPN3-Bidomain, PTPN3-linker-PTP, PTPN3-shLinker-PTP (short linker, missing 23 residues) and PTPN3-PDZ (Figure 1). In all experiments, the phosphatase activity was assessed using the synthetic nonspecific phosphatase substrate p-nitrophenyl phosphate (pNPP), whose hydrolysis into p-nitrophenol (pNP) can be followed spectrophotometrically at 410 nm. Reactions were performed in 50 mM Tris-HCl, pH 7.5, 1 mM MgCl2, 150 mM NaCl, 0.5 mM.
TCEP The initial reaction rates were measured independently at pH 7.5 and at 25°C. pNPP was assayed for concentrations ranging from 19 μM to 10 mM at an enzyme concentration of 75 nM. […] The experimental data was therefore fitted to a corrected Michaelis-Menten equation to take into consideration this inhibition.
The equation is: Vo = Vmax [S]/(Km + [S] + [S]2/Ki) with Vo the initial rate, Vmax the maximal rate, [S] the substrate concentration and Ki the inhibition constant.
Phosphatase activity was measured by following the hydrolysis of pNPP as previously described ([Maisonneuve et al., 2014]). Absorbances were measured continuously at 410 nm for pNP, using a Thermo Scientific UV spectrometer equilibrated at 25°C. Initial linear reaction rates were calculated during a 60 s reaction. The kcat and KM constants were deduced from fitting the Michaelis-Menten equation with the Prism software. The data are representative of three independent experiments.
A large excess (molar ratio 600:1) of each peptide was incubated with PTPN3-Bidomain for 30’ at 25°C, and the initial rates of the dephosphorylation reaction were measured in the same range of pNPP concentrations.
To assess whether the PBM binding to the PDZ domain releases the catalytic inhibition as observed for PTPN4 ([Maisonneuve et al., 2014]), we added the PBM peptides of the PTPN3 cellular partners, PBM-TACE and PBM-p38γ, and the viral peptides PBM-16E6, PBM-HBc, in large excess ([…]) to PTPN3-Bidomain (Figure 7A; Table 3). For all peptides, a 2-fold decrease in kcat compared to PTPN3-linker-PTP is measured, as in the unbound Bidomain, while the KM remained unaffected (Table 3). Thus, we concluded that the PBM binding has no effect on PTPN3 catalytic activity in our conditions. Accordingly, the specificity constants (kcat/KM) of the complexed Bidomain are in the same range in comparison with the values of PTPN3-Bidomain (Table 3).

In assay [1] the target is HBc PBM (Hepatitis B virus) (UniProt P03149). Conditions: cited from earlier work.
In assay [2] the target is HPV16 E6 PBM (Human papillomavirus type 16) (UniProt P03126). Conditions: cited from earlier work.
The target of assay [3] is HPV18 E6 PBM (Human papillomavirus type 18) (UniProt P06463). As to conditions: cited from earlier work.
A further assay addresses p38γ PBM (Homo sapiens) (UniProt P53778). Conditions: cited from earlier work.
For assay [4], the target named is T2, PTPN3-PDZ (Homo sapiens, UniProt P26045).
T2 construct: GST (N, cleaved yes); made in house; host or cells: E. coli BL21 Star (DE3)
T2 sequence (P26045 510-582 limits assumed): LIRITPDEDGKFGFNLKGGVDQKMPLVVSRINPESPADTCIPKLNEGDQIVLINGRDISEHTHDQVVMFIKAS
The experiment in a line: Holdup assay (binding intensity), PTPN3-PDZ. As to conditions: biotinylated 12-mer peptide on resin, MBP-PDZ bacterial extract, capillary electrophoresis, mean BI, significance threshold 0.2. On the procedure: (§1) The holdup assay was conducted against the biotinylated peptide PBM-p38γ (Supplementary Material S1) following previously established protocols ([Vincentelli et al., 2015]; [Duhoo et al., 2019]) with some slight modifications. In summary, we utilized a high-throughput technique to measure the affinities and specificities of motifs in a library of human PDZ domains, which involved the use of both robotic and microfluidic methodologies. To achieve this, we expressed 266 PDZ domains fused with the Maltose Binding Protein (MBP) tag, which constituted 97% of the human PDZome. Bacterial extracts containing overexpressed PDZ domains were incubated with PBM peptide-coated resins in 96-well plates, then filtered and evaluated using microfluidic capillary electrophoresis to determine binding intensities (BIs) in the flowthroughs. […]
(§2) Then, we investigated the specificity profiles of the PBMs of the PTPN3-PDZ ligands p38γ and of HBc against the full human PDZome (library that contains all the known human PDZ domains) ([Duhoo et al., 2019]). […] 12-mer peptides encompassing the protein C-terminal PBM sequences linked to a biotinyl group are used as baits to quantify the interaction between PBMs and the library of human PDZ domains expressed in Escherichia coli ([Duhoo et al., 2019]). […]

The test system of assay [5] is PTPN4-PDZ. Briefly: Holdup assay (binding intensity), PTPN4-PDZ. Set-up: species or system human. Conditions: biotinylated 12-mer peptide on resin, MBP-PDZ bacterial extract, capillary electrophoresis, mean BI, significance threshold 0.2. On the procedure: as §1, §2
The test system of assay [6] is library of human PDZ domains (266 PDZ domains, 97% of the human PDZome). The experiment in a line: Holdup assay, PDZome-binding profile. As to conditions: holdup against human PDZome; about 10% of the PDZome. On the procedure: as §1, §2
For assay [7], the target named is T2, PTPN3-PDZ. As to conditions: holdup, biotinylated 12-mer peptide; threshold 0.2; ref Genera et al., 2021; cited from earlier work. An excerpt:
(§3) We generated a PDZome-binding profile of PBM-p38γ. Mean values of binding intensities (BI) ranked based on affinity are reported in Supplementary Material S1. The highest BI values indicate the PDZ domains recognized with the best affinities by the peptides used as bait. […] In recent work we established the PDZome-binding profile of PBM-HBc with 28 PDZ domains also identified as significant binders ([Genera et al., 2021]). Thus, this similar number of P ...

The subject of assay [8] is PTPN4-PDZ. Conditions: holdup, biotinylated 12-mer peptide; threshold 0.2; ref Genera et al., 2021; cited from earlier work.
Source text: as §3

Assay [9] relates to library of human PDZ domains (266 PDZ domains, 97% of the human PDZome). As to conditions: holdup against human PDZome; ref Genera et al., 2021; cited from earlier work.
Source text: as §3

The target of assay [10] is biotinylated peptide PBM-p38γ (12-mer, holdup bait). The experiment in a line: holdup assay; biotinylated PBM peptide on resin in 96-well plates; bacterial extracts with overexpressed MBP-PDZ domains incubated, filtered, flowthrough read by microfluidic capillary electrophoresis; binding intensity (BI), threshold 0.2.
For assay [11], the target named is PTPN3 PDZ domain (PTPN3-PDZ) (human, UniProt P26045-1 510-582, Limits taken from the PDB 6HKS/8OEP/8CQY entity (offset 483, N-terminal GAMGS tag remnant left out); the end at 597 agrees with the printed linker start at 598. 15N-labelled for NMR.). Briefly: NMR titration; 1H,15N HSQC chemical shift perturbations of 15N-labelled PTPN3-PDZ (117 μM); PBM-TACE added stepwise, PDZ:peptide 1:0 to 1:8.5, 11 points; 15°C; 50 mM Tris/HCl pH 7.5, 150 mM NaCl, 0.5 mM TCEP, 5% D2O; 1:1 model, 14 peaks. Conditions: both partners purified.

Read-outs that look alike come from different tables or passages of the source.

HPV16 E6 PBM (Human papillomavirus type 16), sequence (P03126 whole entry, looked up): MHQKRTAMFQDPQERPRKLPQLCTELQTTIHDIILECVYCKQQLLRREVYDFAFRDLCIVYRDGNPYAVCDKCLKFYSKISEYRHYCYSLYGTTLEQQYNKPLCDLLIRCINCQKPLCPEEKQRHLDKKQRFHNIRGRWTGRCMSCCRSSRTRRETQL
HPV18 E6 PBM (Human papillomavirus type 18), sequence (P06463 whole entry, looked up): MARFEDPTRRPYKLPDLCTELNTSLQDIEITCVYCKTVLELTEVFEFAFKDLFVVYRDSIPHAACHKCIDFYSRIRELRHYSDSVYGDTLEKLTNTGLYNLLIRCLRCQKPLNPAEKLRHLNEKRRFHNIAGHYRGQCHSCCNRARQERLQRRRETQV

As for RSSRTR R E T Q L [PBM-16E6], at PTPN3-Bidomain, the Km amounted to 800 ± 100 µM and the “k cat of pNPP hydrolysis” value is listed as 1.5 ± 0.1 s^-1.

For the molecule PTPN3 PDZ (from UniProt P26045), the Kd in assay [1] was 29 µM; in [2] it was 53 µM; in assay [3], 37 µM; with p38γ PBM (Homo sapiens), 26 µM.

Take WARVS K E T P L [PBM-p38γ]: the entries for the “binding intensity (BI)” value at PTPN3-PDZ [4] and in the assay on PTPN4-PDZ [5] were 0.52 and 0.60, respectively. Also, in [6], the “number of PDZ domains with significant binding (BI greater than 0.2)” value amounted to 28 PDZ domains. For the same molecule, on PTPN3-Bidomain, the Km is 1200 ± 300 µM. Also, the “k cat of pNPP hydrolysis” value on PTPN3-Bidomain amounted to 1.7 ± 0.2 s^-1.

As to RRRRSQS R E S Q C [PBM-HBc], at PTPN3-Bidomain, the Km worked out at 1300 ± 100 µM and the “k cat of pNPP hydrolysis” value is 1.6 ± 0.1 s^-1. At PTPN3-PDZ [7], the “binding intensity (BI)” value was 0.45. Besides, in the assay on PTPN4-PDZ [8], the “binding intensity (BI)” value is on record as 0.58. The “number of PDZ domains identified as significant binders” value in assay [9] is 28 PDZ domains.

Regarding “PTPN3-PDZ of the holdup PDZome library (MBP fusion) (from UniProt P26045-1 510-582) (domain or fragment)”, in assay [10], the binding intensity (BI) stood at 0.52.

B1: PBM-TACE peptide (last C-terminal 12 residues of TACE) (peptide)
peptide: RQNRVDSKETEC
notes: last C-terminal 12 residues of TACE (tumor necrosis factor alpha-convertase, ADAM17), encompassing the PBM; also called PBM of the tumor necrosis factor-alpha converting enzyme; source: synthetic peptide (solid phase, Fmoc; Proteogenix)
Take B1: the Kd in [11] is 30 µM.

B2: PTPN4-PDZ of the holdup PDZome library (MBP fusion) (domain or fragment)
chain: LIRMKPDENGRFGFNVKGGYDQKMPVIVSRVAPGTPADLCVPRLNEGDQVVLINGRDIAEHTHDQVVLFIKAS
B2 returned a binding intensity (BI) in [10] of 0.6.

As usually defined, the Km is the substrate concentration at which the rate is half of its maximum. For orientation: Kd means the equilibrium constant for the complex coming apart.

The values are drawn from publication PMC10185773, “Interactions of the protein tyrosine phosphatase PTPN3 with viral and cellular partners through its PDZ domain: insights into structural determinants and phosphatase activity” (Frontiers in Molecular Biosciences, 2023).
